Measured values published in PMC3410962 (2012).

Target: prostate-specific membrane antigen (PSMA) (Homo sapiens, UniProt Q04609)
Experiment: HPLC-based inhibition assay of purified PSMA with PABGγG substrate
Type: biochemical

Sequence of prostate-specific membrane antigen (PSMA) (Q04609 whole entry): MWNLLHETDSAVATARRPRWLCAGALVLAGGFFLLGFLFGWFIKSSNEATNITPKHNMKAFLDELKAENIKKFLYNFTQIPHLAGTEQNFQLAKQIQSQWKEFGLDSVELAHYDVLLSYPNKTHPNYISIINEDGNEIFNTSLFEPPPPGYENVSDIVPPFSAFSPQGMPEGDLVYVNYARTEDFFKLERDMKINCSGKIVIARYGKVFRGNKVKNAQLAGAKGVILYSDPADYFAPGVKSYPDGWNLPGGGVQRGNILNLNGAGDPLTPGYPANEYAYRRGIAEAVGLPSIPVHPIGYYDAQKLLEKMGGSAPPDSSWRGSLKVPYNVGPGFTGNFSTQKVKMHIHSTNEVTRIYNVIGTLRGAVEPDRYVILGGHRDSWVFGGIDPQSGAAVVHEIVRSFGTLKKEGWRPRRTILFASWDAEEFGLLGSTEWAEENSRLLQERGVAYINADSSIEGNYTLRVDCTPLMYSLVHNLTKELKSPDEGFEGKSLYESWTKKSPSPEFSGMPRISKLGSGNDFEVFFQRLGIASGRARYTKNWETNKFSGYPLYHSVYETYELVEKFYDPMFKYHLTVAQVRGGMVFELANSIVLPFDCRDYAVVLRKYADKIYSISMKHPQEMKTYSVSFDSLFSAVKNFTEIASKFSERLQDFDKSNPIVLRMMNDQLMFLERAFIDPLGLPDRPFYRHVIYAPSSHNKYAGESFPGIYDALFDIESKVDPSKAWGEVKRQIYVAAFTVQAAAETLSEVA

biotin-PEG12-CTT-54
IC50: 10 nM
